IC50 data for 20 molecules are collected here from patent publication US20070049593A1 (priority 2004, published 2007).

For the assay, the target named is T1, HCV polymerase (Hepatitis C virus genotype 1b, UniProt P26663).
T1 construct: a region encoding NS5B (J Virol 1991 March, 65(3), 1105-13, 544 amino acids after deletion of 47 amino acids on the C-terminal); 6xHis (C); made in house; host or cells: Escherichia coli
As to the kind of experiment: biochemical. On the set-up: species or system HCV BK strain. The procedure, abridged: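 His-tagged NS5B (BK strain, 47-aa C-terminal deletion, E. coli-expressed) at 0.5 μg/ml copied 5 μg/ml run-off RNA bearing the HCV 3′ UTR with 2 μM UTP plus [3H]UTP, 50 μM ATP/GTP, in pH 7.5 Tris with 5 mM MgCl2, 25 °C, 90 min. TCA-precipitated RNA was counted and IC50 calculated.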

T1 sequence (P26663 2420-2963): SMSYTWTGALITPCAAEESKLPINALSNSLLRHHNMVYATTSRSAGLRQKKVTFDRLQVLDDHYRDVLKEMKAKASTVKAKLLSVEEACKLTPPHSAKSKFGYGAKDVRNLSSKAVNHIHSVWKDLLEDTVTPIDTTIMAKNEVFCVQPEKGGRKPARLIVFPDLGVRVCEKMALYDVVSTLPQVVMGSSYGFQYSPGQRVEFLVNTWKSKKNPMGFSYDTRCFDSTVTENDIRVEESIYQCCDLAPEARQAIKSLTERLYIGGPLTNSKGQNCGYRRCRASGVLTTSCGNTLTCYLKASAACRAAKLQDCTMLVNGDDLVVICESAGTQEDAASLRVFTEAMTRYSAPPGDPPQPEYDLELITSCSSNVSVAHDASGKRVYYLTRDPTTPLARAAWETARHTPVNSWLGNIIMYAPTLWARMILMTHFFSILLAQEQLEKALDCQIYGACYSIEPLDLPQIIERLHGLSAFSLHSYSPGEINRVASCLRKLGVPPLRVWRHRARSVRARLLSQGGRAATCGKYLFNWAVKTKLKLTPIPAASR

As to `Cn1c(C(C)(C)NC(=O)c2ccc3c(C4CCCCC4)c4n(c3c2)CCOc2ccccc2-4)nc2cc(C(=O)O)ccc21` [Example 2-330, 2-{1-[(12-cyclohexyl-6,7-dihydro-5-oxa-7a-azadibenzo[a,e]azulene-9-carbonyl)amino]-1-methylethyl}-1-methyl-1H-benzimidazole-5-carboxylic acid], the half-inhibitory concentration (IC50) (as a rule, the concentration that inhibits the measured activity by half) was under 100 nM. `COC(=O)c1cc2nc(C(C)(C)NC(=O)c3ccc4c(C5CCCCC5)c5n(c4c3)CCOc3cc(OC)ccc3-5)[nH]c2cc1OC` [Example 2-331, methyl 2-{1-[(12-cyclohexyl-3-methoxy-6,7-dihydro-5-oxa-7a-azadibenzo[a,e]azulene-9-carbonyl)amino]-1-methylethyl}-6-methoxy-1H-benzimidazole-5-carboxylate]: the IC50 was under 100 nM. Take `COc1ccc2c(c1)OCCn1c-2c(C2CCCCC2)c2ccc(C(=O)NC(C)(C)c3nc4ccc(C(=O)O)cc4[nH]3)cc21` [Example 2-332, 2-{1-[(12-cyclohexyl-3-methoxy-6,7-dihydro-5-oxa-7a-azadibenzo[a,e]azulene-9-carbonyl)amino]-1-methylethyl}-3H-benzimidazole-5-carboxylic acid]: the 50% inhibitory concentration (IC50) was under 100 nM. The molecule `CCN(CCCCOC)C(=O)C(C)(C)NC(=O)c1ccc2c(C3CCCCC3)c3n(c2c1)CCOc1ccccc1-3` [Example 2-333, N-{1-[N-ethyl-N-(4-methoxybutyl)carbamoyl]-1-methylethyl}-12-cyclohexyl-6,7-dihydro-5-oxa-7a-azadibenzo[a,e]azulene-9-carboxamide] displayed an IC50 of under 100 nM. `CC(=O)NC1CCN(C(=O)C(C)(C)NC(=O)c2ccc3c(C4CCCCC4)c4n(c3c2)CCOc2ccccc2-4)CC1` [Example 2-334, N-[2-(4-acetylaminopiperidin-1-yl)-1,1-dimethyl-2-oxoethyl]-12-cyclohexyl-6,7-dihydro-5-oxa-7a-azadibenzo[a,e]azulene-9-carboxamide] displayed an IC50 of under 100 nM. The molecule `CC(C)(NC(=O)c1ccc2c(C3CCCCC3)c3n(c2c1)CCOc1ccccc1-3)C(=O)N1CCC(NS(C)(=O)=O)CC1` [Example 2-335, N-[2-(4-methanesulfonylaminopiperidin-1-yl)-1,1-dimethyl-2-oxoethyl]-12-cyclohexyl-6,7-dihydro-5-oxa-7a-azadibenzo[a,e]azulene-9-carboxamide] displayed an IC50 of under 100 nM. For `COC(=O)c1ccc2nc(C(C)(C)NC(=O)c3ccc4c(C5CCCCC5)c5n(c4c3)CCOc3ccccc3-5)n(C)c2c1` [Example 2-336, methyl 2-{1-[(12-cyclohexyl-6,7-dihydro-5-oxa-7a-azadibenzo[a,e]azulene-9-carbonyl)amino]-1-methylethyl}-3-methyl-3H-benzimidazole-5-carboxylate], the IC50 was under 100 nM. On to `Cn1c(C(C)(C)NC(=O)c2ccc3c(C4CCCCC4)c4n(c3c2)CCOc2ccccc2-4)nc2ccc(C(=O)O)cc21` [Example 2-337, 2-{1-[(12-cyclohexyl-6,7-dihydro-5-oxa-7a-azadibenzo[a,e]azulene-9-carbonyl)amino]-1-methylethyl}-3-methyl-3H-benzimidazole-5-carboxylic acid], for which the 50% inhibitory concentration (IC50) is under 100 nM. The figure for `COC(=O)[C@H](Cc1ccc(NC(C)=O)cc1)NC(=O)c1ccc2c(C3CCCCC3)c3n(c2c1)CCOc1cc(OC)ccc1-3` [Example 2-338, methyl (S)-3-(4-acetylaminophenyl)-2-[(12-cyclohexyl-3-methoxy-6,7-dihydro-5-oxa-7a-azadibenzo[a,e]azulene-9-carbonyl)amino]propionate] is under 100 nM. The figure for `COC(=O)[C@H](Cc1ccc(NS(C)(=O)=O)cc1)NC(=O)c1ccc2c(C3CCCCC3)c3n(c2c1)CCOc1cc(OC)ccc1-3` [Example 2-339, methyl (S)-2-[(12-cyclohexyl-3-methoxy-6,7-dihydro-5-oxa-7a-azadibenzo[a,e]azulene-9-carbonyl)amino]-3-(4-methanesulfonylaminophenyl)propionate] is under 100 nM; for `COc1ccc2c(c1)OCCn1c-2c(C2CCCCC2)c2ccc(C(=O)N[C@@H](Cc3ccc(NC(C)=O)cc3)C(=O)O)cc21` [Example 2-340, (S)-3-(4-acetylaminophenyl)-2-[(12-cyclohexyl-3-methoxy-6,7-dihydro-5-oxa-7a-azadibenzo[a,e]azulene-9-carbonyl)amino]propionic acid] it is under 100 nM. Regarding `COc1ccc2c(c1)OCCn1c-2c(C2CCCCC2)c2ccc(C(=O)N[C@@H](Cc3ccc(NS(C)(=O)=O)cc3)C(=O)O)cc21` [Example 2-341, (S)-2-[(12-cyclohexyl-3-methoxy-6,7-dihydro-5-oxa-7a-azadibenzo[a,e]azulene-9-carbonyl)amino]-3-(4-methanesulfonylaminophenyl)propionic acid], the IC50 was under 100 nM. With `COCCCN(CCN1CCCCC1)c1cccc2c1OCCn1c-2c(C2CCCCC2)c2ccc(C(=O)O)cc21` [Example 2-342] the figure was under 100 nM. `CN(C)Cc1ccccc1-c1cccc2c1OCCn1c-2c(C2CCCCC2)c2ccc(C(=O)O)cc21` [Example 2-343, 12-cyclohexyl-4-(2-dimethylaminomethylphenyl)-6,7-dihydro-5-oxa-7a-azadibenzo[a,e]azulene-9-carboxylic acid] showed an IC50 of under 100 nM. In turn, `O=C(O)c1ccc2c(C3CCCCC3)c3n(c2c1)CCOc1c-3cccc1N1CCCCC1=O` [Example 2-344, 12-cyclohexyl-4-(2-oxopiperidin-1-yl)-6,7-dihydro-5-oxa-7a-azadibenzo[a,e]azulene-9-carboxylic acid] had an IC50 of under 100 nM. In turn, `O=C(O)c1ccc2c(C3CCCCC3)c3n(c2c1)CCOc1c-3cccc1N1CCCCC1` [Example 2-345, 12-cyclohexyl-4-(piperidin-1-yl)-6,7-dihydro-5-oxa-7a-azadibenzo[a,e]azulene-9-carboxylic acid] came in with a 50% inhibitory concentration (IC50) of under 100 nM.

As for `COc1ccc2c(c1)OCCn1c-2c(C2CCCCC2)c2ccc(C(=O)NC(C)(C)c3nc4ccc(C(=O)N(C)C)cc4[nH]3)cc21` [Example 2-346, N-[1-(6-dimethylcarbamoyl-1H-benzimidazol-2-yl)-1-methylethyl]-12-cyclohexyl-3-methoxy-6,7-dihydro-5-oxa-7a-azadibenzo[a,e]azulene-9-carboxamide], the IC50 was under 100 nM. `COc1ccc2c(c1)OCCn1c-2c(C2CCCCC2)c2ccc(C(=O)NC(C)(C)c3nc4cc(C(=O)O)c(OC)cc4[nH]3)cc21` [Example 2-347, 2-{1-[(12-cyclohexyl-3-methoxy-6,7-dihydro-5-oxa-7a-azadibenzo[a,e]azulene-9-carbonyl)amino]-1-methylethyl}-6-methoxy-1H-benzimidazole-5-carboxylic acid] gave an IC50 of under 100 nM. For `COc1ccc2c(c1)OCCn1c-2c(C2CCCCC2)c2ccc(C(=O)NC(C)(C)c3nc4ccccc4o3)cc21` [Example 2-348, N-[1-(benzoxazol-2-yl)-1-methylethyl]-12-cyclohexyl-3-methoxy-6,7-dihydro-5-oxa-7a-azadibenzo[a,e]azulene-9-carboxamide], the IC50 is under 100 nM.

Consider `COC(=O)c1ccc(NC(=O)C(C)(C)NC(=O)c2ccc3c(C4CCCCC4)c4n(c3c2)CCOc2cc(OC)ccc2-4)cc1` [Example 2-349, methyl 4-{2-[(12-cyclohexyl-3-methoxy-6,7-dihydro-5-oxa-7a-azadibenzo[a,e]azulene-9-carbonyl)amino]-2-methylpropionylamino}benzoate], for which the half-maximal inhibitory concentration (IC50) is under 100 nM.
